# Values of other authors in patent US9040021B2, “Heterocyclic compounds as imaging probes of tau pathology” (GE Healthcare Limited, priority 2010, dated 2015).
# Molecular target: tau aggregates (Homo sapiens, UniProt P10636)
# Details: in vitro; tau aggregates vs Aβ1-42 amyloid; fold selectivity
# Sequence of tau aggregates (P10636 whole entry): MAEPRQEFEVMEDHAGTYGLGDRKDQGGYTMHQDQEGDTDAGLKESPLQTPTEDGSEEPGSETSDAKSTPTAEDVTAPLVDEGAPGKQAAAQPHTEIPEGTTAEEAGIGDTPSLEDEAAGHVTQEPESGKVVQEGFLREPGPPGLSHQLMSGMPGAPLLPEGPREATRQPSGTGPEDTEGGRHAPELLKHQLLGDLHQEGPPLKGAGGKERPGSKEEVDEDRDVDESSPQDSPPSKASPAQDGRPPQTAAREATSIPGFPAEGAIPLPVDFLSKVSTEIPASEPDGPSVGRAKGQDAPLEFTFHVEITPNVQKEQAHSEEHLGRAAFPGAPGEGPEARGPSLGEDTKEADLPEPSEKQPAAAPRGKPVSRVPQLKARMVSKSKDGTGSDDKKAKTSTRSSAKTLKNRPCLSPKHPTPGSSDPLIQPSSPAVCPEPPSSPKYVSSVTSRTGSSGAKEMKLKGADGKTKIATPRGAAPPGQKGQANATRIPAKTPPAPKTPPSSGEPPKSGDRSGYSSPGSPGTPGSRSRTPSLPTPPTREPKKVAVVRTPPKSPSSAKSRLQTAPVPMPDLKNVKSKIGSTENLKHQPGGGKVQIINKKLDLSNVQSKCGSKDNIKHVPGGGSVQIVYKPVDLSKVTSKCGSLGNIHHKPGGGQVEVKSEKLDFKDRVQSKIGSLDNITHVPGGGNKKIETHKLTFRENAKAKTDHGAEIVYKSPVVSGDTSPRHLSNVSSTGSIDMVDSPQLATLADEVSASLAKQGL
row,SMILES,selectivity for tau aggregates over Aβ1-42 amyloid
1,"Nc1ccc(-c2ccc3ccccc3n2)cc1 [BF-170, 2-(4-(amino)phenyl)quinoline]",threefold
2,"CNc1ccc(-c2ccc3ccccc3n2)cc1 [BF-158, 2-(4-(methylamino)phenyl)quinoline]",threefold
